Test results as given in ChEMBL document CHEMBL1201862, “PubChem BioAssay data set” (2004).
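Values below derive from 48-hour exposures of cells grown in 96-well plates, with endpoints linearly interpolated between the two concentrations bracketing the appropriate inhibition level. GI50 = concentration required for 50% inhibition of growth.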 Activity calls are given as the source filed them. Rule as the data show it: active = GI50 up to about 1.1 µM and inactive = higher.

What was measured:
Assay in all cases: NCI tumour cell line growth inhibition, 48 h
A549 = test system: A549
HL-60 = test system: HL-60
MOLT-4 = test system: MOLT-4
SR = test system: SR
K562 = test system: K562
OVCAR-3 = test system: OVCAR-3
A498 = test system: A498
KM12 = test system: KM12
HOP-92 = test system: HOP-92
HCT-15 = test system: HCT-15
MCF7 = test system: MCF7
SF-268 = test system: SF-268
OVCAR-5 = test system: OVCAR-5
EKVX = test system: EKVX
Hs-578T = test system: Hs-578T
UACC-257 = test system: UACC-257
MDA-MB-435 = test system: MDA-MB-435
MDA-MB-231 = test system: MDA-MB-231
SK-MEL-28 = test system: SK-MEL-28
HT-29 = test system: HT-29

SMILES | GI50 (A549) | GI50 (HL-60) | GI50 (MOLT-4) | GI50 (SR) | GI50 (K562) | GI50 (OVCAR-3) | GI50 (A498) | GI50 (KM12) | GI50 (HOP-92) | GI50 (HCT-15) [µM] | GI50 (MCF7) | GI50 (SF-268) | GI50 (OVCAR-5) | GI50 (EKVX) | GI50 (Hs-578T) | GI50 (UACC-257) | GI50 (MDA-MB-435) | GI50 (MDA-MB-231) | GI50 (SK-MEL-28) | GI50 (HT-29)
CCOC(=O)C(NC(=O)CC(C)C)(N1CCN(c2cc3c(cc2F)c(=O)c(C(=O)O)cn3C2CC2)CC1)C(F)(F)F (centres undefined) | 27.5 µM (inactive) | 5.75 µM (inactive) | 5.71 µM (inactive) | 11.6 µM (inactive) | 11 µM (inactive) | 14.7 µM (inactive) | 1.73 µM (inactive) | 13.6 µM (inactive) | 9.57 µM (inactive) | 10 | 15.6 µM (inactive) | 11.1 µM (inactive) | 17.7 µM (inactive) | 23.4 µM (inactive) | 21.8 µM (inactive) | 16.7 µM (inactive) | 21.9 µM (inactive) | 22 µM (inactive) | 20.9 µM (inactive) | 29.3 µM (inactive)
CCOC(=O)C1=C(C)NC(C)=C(C(=O)OCCNC(=O)c2ccc(N=[N+]=[N-])cc2)C1c1ccccc1C(F)(F)F (centres undefined) [AZIDOPINE] | 8 µM (inactive) | 7.66 µM (inactive) | 4.09 µM (inactive) | 4.44 µM (inactive) | 7.83 µM (inactive) | 9.06 µM (inactive) | > 10 µM (inactive) | 7.85 µM (inactive) | 2.01 µM (inactive) | 8.45 | 6.43 µM (inactive) | 10.3 µM (inactive) | 19.9 µM (inactive) | 10.7 µM (inactive) | 12.7 µM (inactive) | 11.5 µM (inactive) | 9.27 µM (inactive) | 14 µM (inactive) | 13.4 µM (inactive) | 9.46 µM (inactive)
O=C1/C(=C/c2ccc(Cl)cc2)N=C(c2ccccc2)N1c1ccc(S(=O)(=O)Nc2nccs2)cc1 | 52.4 µM (inactive) | 30.5 µM (inactive) | 33.2 µM (inactive) | 32.7 µM (inactive) | 33 µM (inactive) | 30.5 µM (inactive) | 43.6 µM (inactive) | 24.8 µM (inactive) | 28.9 µM (inactive) | 37.5 | 26.1 µM (inactive) | 50.8 µM (inactive) | > 100 µM (inactive) | 31.5 µM (inactive) | 64.4 µM (inactive) | 32.7 µM (inactive) | 23.6 µM (inactive) | 18.9 µM (inactive) | 30.4 µM (inactive) | 21.9 µM (inactive)
COC(=O)c1c(O)ccc2c1c1c(n2CCc2ccccc2)C(=O)c2ccccc2C1=O | 8.97 µM (inactive) | 17.8 µM (inactive) | 4.06 µM (inactive) | 5.28 µM (inactive) | 8.38 µM (inactive) | 6.7 µM (inactive) | 16.6 µM (inactive) | 12.2 µM (inactive) | 16.3 µM (inactive) | 9.35 | 9.02 µM (inactive) | 12.7 µM (inactive) | 20.2 µM (inactive) | 20.7 µM (inactive) | 13.3 µM (inactive) | 17.7 µM (inactive) | 7.03 µM (inactive) | 14.6 µM (inactive) | 16 µM (inactive) | 11.8 µM (inactive)
O=[N+]([O-])c1ccc(NN/N=N/c2ccc(-c3nc4ccccc4[nH]3)cc2)c([N+](=O)[O-])c1 | 58.3 µM (inactive) | 13.8 µM (inactive) | 5.14 µM (inactive) | 2.74 µM (inactive) | 6.52 µM (inactive) | 28.4 µM (inactive) | 25.6 µM (inactive) | 31.9 µM (inactive) | 43.8 µM (inactive) | 19.7 | 4.27 µM (inactive) | 26.1 µM (inactive) | > 100 µM (inactive) | 17.4 µM (inactive) | 64.9 µM (inactive) | 76.7 µM (inactive) | 54 µM (inactive) | > 100 µM (inactive) | > 100 µM (inactive) | 36.5 µM (inactive)
C=C1CCC2C(C)(CO)C(O)CCC2(C)C1C/C=C1\C(=O)OCC1O (centres undefined) | 23.8 µM (inactive) | 16.2 µM (inactive) | 28.2 µM (inactive) | 1.01 µM (active) | 3.24 µM (inactive) | 9.4 µM (inactive) | 32.7 µM (inactive) | 14.1 µM (inactive) | 27.8 µM (inactive) | 14.6 | 15.7 µM (inactive) | 31.1 µM (inactive) | 17.1 µM (inactive) | 29.3 µM (inactive) | 36.6 µM (inactive) | 20 µM (inactive) | 10.3 µM (inactive) | 26.4 µM (inactive) | 13.9 µM (inactive) | 5.28 µM (inactive)
CC1=CC2=C(C(N)=O)C(=O)OC2(C)C(c2ccccc2)C1 (centres undefined) | > 100 µM (inactive) | > 100 µM (inactive) | > 100 µM (inactive) | > 100 µM (inactive) | > 100 µM (inactive) | > 100 µM (inactive) | > 100 µM (inactive) | > 100 µM (inactive) | > 100 µM (inactive) | > 100 | > 100 µM (inactive) | > 100 µM (inactive) | > 100 µM (inactive) | > 100 µM (inactive) | > 100 µM (inactive) | > 100 µM (inactive) | > 100 µM (inactive) | > 100 µM (inactive) | > 100 µM (inactive) | > 100 µM (inactive)
Nc1ccccc1SC(C[N+](=O)[O-])c1ccc2c(c1)OCO2 (centres undefined) | 3.1 µM (inactive) | 1.9 µM (inactive) | 2.3 µM (inactive) | 1.91 µM (inactive) | 1.63 µM (inactive) | 3.28 µM (inactive) | 8.39 µM (inactive) | 2.44 µM (inactive) | 15.6 µM (inactive) | 3.01 | 2.99 µM (inactive) | 7.55 µM (inactive) | 3.65 µM (inactive) | 3.89 µM (inactive) | 5.64 µM (inactive) | 1.81 µM (inactive) | 2.32 µM (inactive) | 7.1 µM (inactive) | 3.4 µM (inactive) | 1.89 µM (inactive)
COc1ccc(C[n+]2cccc(O)c2)cc1 | > 100 µM (inactive) | > 100 µM (inactive) | > 100 µM (inactive) | > 100 µM (inactive) | > 100 µM (inactive) | > 100 µM (inactive) | > 100 µM (inactive) | > 100 µM (inactive) | > 100 µM (inactive) | > 10 | > 100 µM (inactive) | > 100 µM (inactive) | > 100 µM (inactive) | > 100 µM (inactive) | > 100 µM (inactive) | – | > 100 µM (inactive) | > 100 µM (inactive) | > 100 µM (inactive) | > 100 µM (inactive)
CC1(C)C(=O)N=C(N)N1C(=O)OCc1ccccc1 | > 100 µM (inactive) | > 100 µM (inactive) | > 100 µM (inactive) | > 100 µM (inactive) | > 100 µM (inactive) | > 100 µM (inactive) | > 100 µM (inactive) | > 100 µM (inactive) | > 100 µM (inactive) | > 100 | > 100 µM (inactive) | > 100 µM (inactive) | > 100 µM (inactive) | > 100 µM (inactive) | > 100 µM (inactive) | > 100 µM (inactive) | > 100 µM (inactive) | > 100 µM (inactive) | > 100 µM (inactive) | > 100 µM (inactive)
COc1ccc(S(=O)(=O)Nc2ccc(-c3csc(N4C(=O)/C(=C/c5ccccc5)N=C4c4ccccc4)n3)cc2)cc1Cl | 35.1 µM (inactive) | 24.6 µM (inactive) | 25.1 µM (inactive) | 28.1 µM (inactive) | 34.3 µM (inactive) | 36.2 µM (inactive) | 11.3 µM (inactive) | 33.7 µM (inactive) | 24.4 µM (inactive) | 20.2 | 36.8 µM (inactive) | 31.4 µM (inactive) | 47.2 µM (inactive) | – | 37.5 µM (inactive) | 30.9 µM (inactive) | 27.5 µM (inactive) | 16.1 µM (inactive) | 57.4 µM (inactive) | > 100 µM (inactive)
CNC(=O)c1nn[nH]c1O | > 100 µM (inactive) | > 100 µM (inactive) | > 100 µM (inactive) | > 100 µM (inactive) | > 100 µM (inactive) | – | > 100 µM (inactive) | > 100 µM (inactive) | > 100 µM (inactive) | > 100 | > 100 µM (inactive) | > 100 µM (inactive) | > 100 µM (inactive) | > 100 µM (inactive) | 98.4 µM (inactive) | > 100 µM (inactive) | > 100 µM (inactive) | > 100 µM (inactive) | > 100 µM (inactive) | > 100 µM (inactive)
CCOC(=O)C1=c2[nH]c3cccc4cccc(c43)n2C(=O)CC1c1ccccc1 (centres undefined) | > 100 µM (inactive) | 95.5 µM (inactive) | > 100 µM (inactive) | > 100 µM (inactive) | > 100 µM (inactive) | – | > 100 µM (inactive) | > 100 µM (inactive) | > 100 µM (inactive) | > 100 | > 100 µM (inactive) | > 100 µM (inactive) | > 100 µM (inactive) | > 100 µM (inactive) | > 100 µM (inactive) | > 100 µM (inactive) | > 100 µM (inactive) | > 100 µM (inactive) | > 100 µM (inactive) | > 100 µM (inactive)
COc1ccc(C(CC(=O)C(C)(C)CN2CCCCC2)SCCS(=O)(=O)O)cc1 (centres undefined) | 41.4 µM (inactive) | 41.4 µM (inactive) | 22.1 µM (inactive) | 14.3 µM (inactive) | 22.9 µM (inactive) | 12.8 µM (inactive) | 26.2 µM (inactive) | 30.4 µM (inactive) | 17.8 µM (inactive) | 34.2 | 28.7 µM (inactive) | – | 21.3 µM (inactive) | 30.4 µM (inactive) | 55.3 µM (inactive) | 34.4 µM (inactive) | 18.3 µM (inactive) | 27.5 µM (inactive) | – | 26.2 µM (inactive)
